System: HCV (Ib) RNA replication
Assay: Cell-based luciferase reporter HCV (1b) RNA replication assay (replicon cell lines Huh-7 5.2 and ET)
Design: species or system Hepatitis C virus
Details: Hepatitis C virus, Huh-7, 96 h, HCV 1b genotype replicon, luciferase readout, 4 days incubation; read-out: EC50_1b
Source text: Cell-Based Luciferase Reporter HCV (Ib) RNA Replication Assay Cell Culture
Replicon cell lines Huh-7, 5.2 and ET which are derived from the Huh-7 hepatocarcinoma cell line are maintained in culture as generally described in Krieger, N; Lohmann, V; Bartenschlager, R. Enhancement of hepatitis C virus RNA replication by cell culture-adaptive mutations. J. Virol. 2001, 75, 4614-4624. The Huh-7, 5.2 cells contain the highly cell culture-adapted replicon I389luc-ubi-neo/NS3-3′/5.1 construct that carries, in addition to the neomycin gene, an integrated copy to the firefly luciferase gene (Krieger, N; Lohmann, V; Bartenschlager, R. Enhancement of hepatitis C virus RNA replication by cell culture-adaptive mutations. J. Virol. 2001, 75, 4614-4624). This cell line allows measurement of HCV RNA replication and translation by measuring luciferase activity. It has been previously shown that the luciferase activity tightly follows the replicon RNA level in these cells (Krieger, N; Lohmann, V; Bartenschlager, R. Enhancement of hepatitis C virus RNA replication by cell culture-adaptive mutations. J. Virol. 2001, 75, 4614-4624). The Huh-7, ET cell line has the same features as those mentioned for Huh-7, 5.2 cell line, except that ET cells are more robust and contain an adaptative mutation in the HCV NS4B gene instead of NS5A. Both cell lines are maintained in cultures at a sub-confluent level (<85%) as the level of replicon RNA is highest in actively proliferating cells. The culture media used for cell passaging consist of DMEM (Gibco BRL Laboratories, Mississauga, ON, Canada) supplemented with 10% foetal bovine serum with 1% penicillin/streptomycin, 1% glutamine, 1% sodium pyruvate, 1% non-essential amino acids, and 180 ug/ml of G418 final concentration. Cells are incubated at 37° C., in an atmosphere of 5% CO2 and passaged twice a week to maintain sub-confluence.
Approximately 3000 viable Huh-7, 5.2 or ET cells (100 μl) are plated per well in a white opaque 96-well microtiter plate. The cell culture media used for the assay is the same as described above except that it contains no G418 and no phenol red. After an incubation period of 3-4 hours at 37° C. in a 5% CO2 incubator, compounds (100 μl) are added at various concentrations. Cells are then further incubated for 4 days at 37° C. in a 5% CO2 incubator. Thereafter, the culture media is removed and cells are lysed by the addition of 95 μL of the luciferase buffer (luciferin substrate in buffered detergent). Cell lysates are incubated at room temperature and protected from direct light for at least 10 minutes. Plates are read for luciferase counts using a luminometer (Wallac MicroBeta Trilux, Perkin ELmer™, MA, USA).
The 50% inhibitory concentrations (IC50s) for inhibitory effect are determined from dose response curves using eleven concentrations per compound in duplicate. Curves are fitted to data points using nonlinear regression analysis, and IC50s are interpolated from the resulting curve using GraphPad Prism software, version 2.0 (GraphPad Software Inc., San Diego, Calif., USA).
Table 2 show compounds representative of the present invention and the EC50 values against the HCV 1b genotype.

Row | Structure (SMILES) | EC50
1 | COC(=O)N[C@H](C(=O)N1[C@@H](C)CC[C@H]1c1nc2cc(C#CC#Cc3ccc4[nH]c([C@@H]5CC[C@H](C)N5C(=O)[C@@H](NC(=O)OC)C(C)C)nc4c3)ccc2[nH]1)C(C)C [Compound 324] | ≤ 5 nM
2 | COC(=O)N[C@H](C(=O)N1C[C@H](C)C[C@H]1c1nc2cc(-c3ccc(-c4ccc5[nH]c([C@@H]6C[C@@H](C)CN6C(=O)[C@@H](NC(=O)OC)C(C)C)nc5c4)cc3)ccc2[nH]1)C(C)C [Compound 248] | ≤ 5 nM
3 | C[C@@H]1CN(c2ccc3nc([C@@H]4CCCN4C(=O)OC(C)(C)C)[nH]c3c2)CCN1c1ccc2nc([C@@H]3CCCN3C(=O)OC(C)(C)C)[nH]c2c1 [Compound 283] | > 5000 nM
4 | COC(=O)N[C@H](C(=O)N1CCC[C@H]1c1nc2c(F)cc(-c3ccc(-c4cc(F)c5nc([C@@H]6CCCN6C(=O)[C@@H](NC(=O)OC)C(C)C)[nH]c5c4)cc3)cc2[nH]1)C(C)C [Compound 250] | ≤ 5 nM
5 | O=C(CC1CC1)N1CCC[C@H]1c1nc2cc(C#Cc3ccc4[nH]c([C@@H]5CCCN5C(=O)CC5CC5)nc4c3)ccc2[nH]1 [Compound 108] | 5 to 5000 nM
6 | CC(C)[C@H](NC(=O)O[C@H]1CCOC1)C(=O)N1CCC[C@H]1c1nc2cc(-c3ccc(-c4ccc5[nH]c([C@@H]6CCCN6C(=O)[C@@H](NC(=O)O[C@H]6CCOC6)C(C)C)nc5c4)s3)ccc2[nH]1 [Compound 101] | 5 to 5000 nM
7 | CC(C)(C)CC(=O)N1CCC[C@H]1c1nc2cc(C#Cc3ccc4[nH]c([C@@H]5CCCN5C(=O)CC(C)(C)C)nc4c3)ccc2[nH]1 [Compound 124] | 5 to 5000 nM
8 | COC(=O)N[C@@H](C(=O)N1CCC[C@H]1c1nc2cc(C#Cc3ccc4[nH]c([C@@H]5CCCN5C(=O)[C@H](NC(=O)OC)c5ccccc5)nc4c3)ccc2[nH]1)c1ccccc1 [Compound 33, {(R)-2-[(S)-2-(5-{2-[(S)-1-((R)-2-Methoxycarbonylamino-2-phenyl-acetyl)-pyrrolidin-2-yl]-1H-benzoimidazol-5-ylethynyl}-1H-benzoimidazol-2-yl)-pyrrolidin-1-yl]-2-oxo-1-phenyl-ethyl}-carbamic acid methylester] | ≤ 5 nM
9 | COC(=O)N[C@H](C(=O)N1CCC[C@H]1c1nc2cc(-c3ccc(-c4ccc5nc([C@@H]6CCCN6C(=O)[C@@H](NC(=O)OC)C(C)C)[nH]c5c4)cc3NC(C)=O)ccc2[nH]1)C(C)C [Compound 164] | ≤ 5 nM
10 | COC(=O)N[C@H](C(=O)N1CCC[C@H]1c1nc2cc(-c3ccc(-c4ccc5[nH]c([C@@H]6CC(F)(F)CN6C(=O)[C@@H](NC(=O)OC)C(C)C)nc5c4)cc3)ccc2[nH]1)C(C)C [Compound 187] | ≤ 5 nM
11 | CC(C)(C)OC(=O)NC1(C(=O)N2CCC[C@H]2c2nc3cc(C#Cc4ccc5[nH]c([C@@H]6CCCN6C(=O)C6(NC(=O)OC(C)(C)C)CCC6)nc5c4)ccc3[nH]2)CCC1 [Compound 130] | 5 to 5000 nM
12 | COC(=O)N[C@H](C(=O)N1CCC[C@H]1c1nc2cc(-c3ccc(-c4ccc5nc([C@@H]6CCCN6C(=O)[C@@H](NC(=O)OC)C(C)(C)O)[nH]c5c4)c4c3OCO4)ccc2[nH]1)C(C)(C)O [Compound 219] | ≤ 5 nM
13 | COC(=O)N[C@@H](C(=O)N1CC[C@H]1c1nc2cc(C#CC#Cc3ccc4[nH]c([C@@H]5CCN5C(=O)[C@H](NC(=O)OC)C(C)C)nc4c3)ccc2[nH]1)C(C)C [Compound 102] | ≤ 5 nM
14 | [2H]C1([2H])Oc2c(-c3ccc4[nH]c([C@@H]5CCCN5C(=O)[C@@H](NC(=O)OC)C(C)C)nc4c3)ccc(-c3ccc4[nH]c([C@@H]5CCCN5C(=O)[C@@H](NC(=O)OC)C(C)C)nc4c3)c2O1 [Compound 194] | ≤ 5 nM
15 | COC(=O)N(C)[C@H](C(=O)N1C[C@@H](C)C[C@H]1c1nc2ccc(-c3ccc(-c4ccc5nc([C@@H]6C[C@H](C)CN6C(=O)[C@H](C(C)C)N(C)C(=O)OC)n(C)c5c4)cc3)cc2[nH]1)C(C)C [Compound 296] | ≤ 5 nM
16 | COC(=O)N[C@@H](C(=O)N1CCC[C@H]1c1nc2cc(-c3ccc(-c4ccc5[nH]c([C@@H]6CCCN6C(=O)[C@H](NC(=O)OC)C(C)C)nc5c4)cc3)ccc2[nH]1)C(C)C [Compound 171] | 5 to 5000 nM

Row | Structure (SMILES) | EC50
17 | COC(=O)N[C@H](C(=O)N1C[C@@H](C)C[C@H]1c1nc2cc(-c3cnc(-c4ccc5[nH]c([C@@H]6C[C@H](C)CN6C(=O)[C@@H](NC(=O)OC)C(C)C)nc5c4)cn3)ccc2[nH]1)C(C)C [Compound 307] | ≤ 5 nM
18 | COC(=O)N[C@@H](C)C(=O)N1CCC[C@H]1c1nc2cc(C#Cc3ccc4[nH]c([C@@H]5CCCN5C(=O)[C@@H](NC(=O)OC)C(C)(C)C)nc4c3)ccc2[nH]1 [Compound 54] | ≤ 5 nM
19 | CC(C)C[C@@H](C(=O)N1CCC[C@H]1c1nc2cc(C#Cc3ccc4[nH]c([C@@H]5CCCN5C(=O)[C@H](CC(C)C)N5CCCC5=O)nc4c3)ccc2[nH]1)N1CCCC1=O [Compound 84] | ≤ 5 nM
20 | COC(=O)N[C@H](C(=O)N1CCC[C@H]1c1nc2cc(N3CCN(c4ccc5nc([C@@H]6CCCN6C(=O)[C@@H](NC(=O)OC)C(C)C)[nH]c5c4)[C@H](C)C3)ccc2[nH]1)C(C)C [Compound 326] | ≤ 5 nM
21 | COC(=O)N[C@@H](C)C(=O)N1CCC[C@H]1c1nc2cc(C#Cc3ccc4[nH]c([C@@H]5CCCN5)nc4c3)ccc2[nH]1 [Compound 57] | 5 to 5000 nM
22 | COC(=O)N[C@H](C(=O)N1CCC[C@H]1c1nc2cc(-c3ccc(-c4ccc5[nH]c([C@@H]6CCCN6C(=O)[C@@H](NC(=O)OC)C(C)C)nc5c4)s3)ccc2[nH]1)C(C)C [Compound 17] | ≤ 5 nM
23 | COC(=O)N[C@H](C(=O)N1CCC[C@H]1c1nc2cc(-c3ccc(-c4ccc5c(c4)nc([C@@H]4CCCN4C(=O)[C@@H](NC(=O)OC)C(C)C)n5C)cc3)ccc2[nH]1)C(C)C [Compound 232] | ≤ 5 nM
24 | COC(=O)N[C@H](C(=O)N1CC2CC2C1c1nc2cc(-c3ccc(-c4ccc5[nH]c(C6C7CC7CN6C(=O)[C@@H](NC(=O)OC)C(C)C)nc5c4)cc3)ccc2[nH]1)C(C)C (some centres unmarked) [Compound 243] | ≤ 5 nM
25 | COC(=O)N[C@H](C(=O)N1CCC[C@H]1c1nc2ccc(N3CCN(c4ccc5nc([C@@H]6CCCN6C(=O)[C@@H](NC(=O)OC)C(C)C)[nH]c5c4)CC3)cc2[nH]1)C(C)C [Compound 229] | ≤ 5 nM
26 | COC(=O)N[C@H](C(=O)N1C[C@@H](F)C[C@H]1c1nc2cc(-c3ccc(-c4ccc5nc([C@@H]6C[C@H](F)CN6C(=O)[C@@H](NC(=O)OC)C(C)C)[nH]c5c4)cc3)ccc2[nH]1)C(C)C [Compound 169] | ≤ 5 nM
27 | COCc1cc(-c2ccc3[nH]c([C@@H]4CCCN4C(=O)[C@@H](NC(=O)OC)C(C)C)nc3c2)c(COC)cc1-c1ccc2[nH]c([C@@H]3CCCN3C(=O)[C@@H](NC(=O)OC)C(C)C)nc2c1 [Compound 218] | ≤ 5 nM
28 | COC(=O)N[C@H](C(=O)N1CCC[C@H]1c1nc2ccc(-c3cc(OC)c(-c4ccc5nc([C@@H]6CCCN6C(=O)[C@@H](NC(=O)OC)C(C)C)[nH]c5c4)cc3OC)cc2[nH]1)C(C)C [Compound 12] | ≤ 5 nM
29 | COC(=O)N[C@H](C(=O)N1C[C@@H](C)C[C@H]1c1nc2cc(-c3ccc(-c4ccc5[nH]c([C@@H]6CC[C@H](C)N6C(=O)[C@@H](NC(=O)OC)C(C)C)nc5c4)cc3)ccc2[nH]1)C(C)C [Compound 320] | ≤ 5 nM
30 | COC(=O)NC(C(=O)N1CCC[C@H]1c1nc2ccc(CCCCc3ccc4[nH]c([C@@H]5CCCN5C(=O)[C@@H](NC(=O)OC)C(C)C)nc4c3)cc2[nH]1)C(C)C (some centres unmarked) [Compound 68] | ≤ 5 nM
31 | CC(C)(C)OC(=O)N1CCCC[C@H]1c1nc2cc(-c3ccc(-c4ccc5nc([C@@H]6CCCCN6C(=O)OC(C)(C)C)[nH]c5c4)s3)ccc2[nH]1 [Compound 112] | 5 to 5000 nM
32 | COC(=O)N[C@H](C(=O)N1C[C@@H](C)C[C@H]1c1nc2cc(-c3ccc(-c4ccc5[nH]c([C@@H]6CC(C)(C)CN6C(=O)[C@@H](NC(=O)OC)C(C)C)nc5c4)cc3)ccc2[nH]1)C(C)C [Compound 327] | ≤ 5 nM

From US8354419B2, “Benzimidazole analogues for the treatment or prevention of flavivirus infections” (Vertex Pharmaceuticals Incorporated, priority 2009, dated 2013)
